Legend:
Type in all cases: cell-based
[1] = tested on: Aspergillus niger ATCC 9642, Aspergillus flavus ATCC 9643, and Chaetomium globosum ATCC 6205; test: ASTM D 2020 fungal resistance test of five biocides on treated glass fiber filter paper (Example 1); conditions: for Observed Fungal Growth after 14 Days incubation at 28° C., 1: replicate 1; for Observed Fungal Growth after 14 Days incubation at 28° C., 2: replicate 2; for Observed Fungal Growth after 14 Days incubation at 28° C., 3: replicate 3
Description: (§1) Five different biocides at varying concentrations were tested for fungal resistance using the ASTM D 2020 Standard Test Method for Mildew (Fungus) Resistance of Paper and Paperboard protocol. This test method was designed for the qualitative determination of mildew (fungus) resistance of paper and paperboard, particularly those types that have been given a fungus resistant treatment. Specific test conditions applied to this project are described below, but at all times the ASTM D 2020 test protocol was strictly followed.
All five biocides (Santoquin®, HMTBA-Cu, BIOX-AUSD, Tox-Guard*Dry, and Metasol-TK 100) were tested at three different concentrations (200, 400, and 600 ppm). Santoquin®, HMTBA-Cu, and BIOX-AUSD were diluted in dimethyl sulfoxide (DMSO), while Tox-Guard*Dry and Metasol-TK100 were diluted in water. DMSO was used a control diluent. The fungal inoculum was comprised of three different species: Aspergillus niger ATCC 9642, Aspergillus flavus ATCC 9643, and Chaetomium globosum ATCC 6205.
(§2) Glass fiber filter paper was treated with the individual test biocides at the respective concentrations listed in Table 1 and allowed to dry overnight. The filter paper carriers, tested in triplicate, were placed in Petri dishes on mineral salts agar and inoculated with the fungal inoculum. The samples were incubated at 28° C. for 2 weeks and examined daily during the first week of incubation for the growth of the test organisms.
(§3) If no growth was observed on a sample after the first week of incubation, the sample was incubated for an additional seven days. […] If, after two weeks, there was no detectable growth of test organisms, the sample was considered fungus resistant.

[2] = tested on: Aspergillus niger ATCC 9642 and Aspergillus flavus ATCC 9643; test: In vitro disk assay of antifungal properties, agar plates containing test agent (Example 3); conditions: 48 hours at 25° C.
Description: In this assay, paper disks were soaked in a fungal solution and placed on the surface of agar plates containing different concentration of the test agent. The radius of fungal growth radiating from each disk was considered indicative of the degree of inhibition by the agent relative to a control.
The test agents were diluted in DMSO or water and tested at several different concentrations. The test agents were added to the agar solution after sterilization, but prior to solidification. […] The plates were incubated for 48 hours at 25° C. The zones of fungal growth (or no growth) were analyzed and the minimum total inhibitory concentration (%) was estimated for each agent.

[3] = tested on: Aspergillus niger ATCC 9642, Aspergillus flavus ATCC 9643, and Chaetomium globosum ATCC 6205; test: ASTM D 2020 fungal resistance test of Santoquin with Kathon 893 as control biocide (Example 2); conditions: for Observed Fungal Growth after 14 Days incubation at 28° C.: replicates 1-3
Description: as §1, with “One biocide sample, labeled Santoquin® was” for “Five different biocides at varying concentrations were”
The Santoquin® biocide was diluted with DMSO and tested at two different concentrations: 0.1% and 1.0%. The biocide Kathon 893 was diluted to 0.1% and 1.0% in water and used as a control biocide. DMSO was used as a control diluent. The fungal inoculum was comprised of three different species: Aspergillus niger ATCC 9642, Aspergillus flavus ATCC 9643, and Chaetomium globosum ATCC 6205.
as §2, with “two different” for “the individual test biocides at the respective”, “(0.1% and 1.0%) of Santoquin®” for “listed in Table 1”
as §3

[4] = all three concentrations (200, 400, and 600 ppm)
[5] = both concentrations (0.1% and 1.0%)

Structure (SMILES) | Observed Fungal Growth after 14 Days incubation at 28° C., 1 ([1]; 200 ppm) | Observed Fungal Growth after 14 Days incubation at 28° C., 2 ([1]; 200 ppm) | Observed Fungal Growth after 14 Days incubation at 28° C., 3 ([1]; 200 ppm) | Observed Fungal Growth after 14 Days incubation at 28° C., 1 ([1]; 400 ppm) | Observed Fungal Growth after 14 Days incubation at 28° C., 2 ([1]; 400 ppm) | Observed Fungal Growth after 14 Days incubation at 28° C., 3 ([1]; 400 ppm) | Observed Fungal Growth after 14 Days incubation at 28° C., 1 ([1]; 600 ppm) | Observed Fungal Growth after 14 Days incubation at 28° C., 2 ([1]; 600 ppm) | Observed Fungal Growth after 14 Days incubation at 28° C., 3 ([1]; 600 ppm) | fungal growth at the end of the two weeks [1, 4] | fungal resistance classification in the ASTM D 2020 test [1, 4] | Minimum Total Inhibitory Concentration (%) [2] [%] | fungal growth at the end of two weeks ([1]; 200 ppm) | fungal resistance classification in the ASTM D 2020 test ([1]; 200 ppm) | fungal growth at the end of two weeks ([1]; 400 and 600 ppm) | fungal resistance classification in the ASTM D 2020 test ([1]; 400 and 600 ppm) | Observed Fungal Growth after 14 Days incubation at 28° C. ([3]; 0.1%) | Observed Fungal Growth after 14 Days incubation at 28° C. ([3]; 1.0%) | fungal growth at the end of the two weeks [3, 5] | fungal resistance classification in the ASTM D 2020 test [3, 5]
CSCCC(O)C(=O)[O-].CSCCC(O)C(=O)[O-].[Cu+2] (stereo not drawn) [Mintrex Cu, Cu(HMTBA)2] | Growth | Growth | Growth | Growth | Growth | Growth | Growth | Growth | Growth | fungal growth | fungus non-resistant | 0.5 |  |  |  |  |  |  |  | 
CCOc1ccc2c(c1)C(C)=CC(C)(C)N2 [Santoquin, 6-ethoxy-1,2-dihydro-2,2,4-trimethylquinoline] | Growth | Growth | Growth | No Growth | No Growth | No Growth | No Growth | No Growth | No Growth |  |  | >0.5 | fungal growth | fungus non-resistant | no fungal growth | fungal resistant | No growth | No growth | no fungal growth | fungal resistant
